The values that follow come from patent US9856262B2, “Analogues of 4H-pyrazolo[1,5-a] benzimidazole compound as PARP inhibitors” (HUBEI BIO-PHARMACEUTICAL INDUSTRIAL TECHNOLOGICAL INSTITUTE …, priority 2014, dated 2018).

Molecules are shown by their SMILES.

One may read the IC50 as the midpoint of a concentration-inhibition curve. What is called EC50 is the concentration needed to bring the measured effect to its halfway point.

One assay concerns the target T1, PARP-1 (Homo sapiens, UniProt P09874).
T1 construct: purchased
Description: PARP enzymatic assay (HT Universal Colorimetric PARP1 Assay Kit). The format is biochemical. The settings on record: read-out: PARP-1 enzymatic inhibition IC50. On the procedure:
PARP Enzymatic Assay (Following the Manual of HT Universal Colorimetric PARP1 Assay Kit).
Histone proteins were coated on a 96-well plate and incubated overnight at 4° C. After be washed 3 times with 200 ul PBST solution, the plate was blocked with a blocking solution and incubated for 30 min at room temperature, and then washed with PBST solution 3 times. A compound to be tested was treated and added to the plate. Thereafter, 20 μl of diluted PARP1 (1 nM) or 20 μl of PARP2 (3 nM) solution was added into the reaction system and incubated for 1 or 2 hours. 50 ul of streptavidin-HRP mixture (1:50) was added into the plate and incubated for 30 min at room temperature. The plate was then washed with three times with PBST buffer. 100 μl of (HRP) (Chemiluminescent substrate A and substrate B (1:1)) was added into the plate, and the plate was immediately read on a microplate reader (Envision, PerkinElmer).

Another assay concerns HCC1937 cells. Kind of assay: Cellular PARylation assay. The settings on record: Homo sapiens; HCC1937 cells, compound 30 min then 1 mM H2O2 10 min; read-out: cellular PARylation EC50. The format is cell-based. As for the experimental part:
Cellular PARylation Assay
HCC1937 cells were planted into 96 well plates at 4×10^4 cells/well and incubated at 37° C. in an incubator overnight. After being treated with a test compound for 30 min, cells were then treated with 1 mM H2O2 for 10 min. The cells were washed with 200 ul pre-chilled PBS twice and fixed with 100 ul pre-chilled methanol/acetone (7:3) on ice for 30 min. After being air-dried, the plates were blocked using PBS-Tween blocking solution (0.05%) with dissolved 5% nonfat dry milk for 30 min at room temperature. The cells were incubated with anti-PAR antibody 10H (1:100) at room temperature for 1 hour followed by washing with PBS-Tween20 for 3 times; and then added into a blocking solution including goat anti-mouse fluorescein isothiocyanate (FITC)-coupled secondary antibody and 1 μg/mL DAPI to incubate away from light at room temperature for 1 hour. After being washed with PBS-Tween20 for 3 times, the plate was analyzed with a fluorescence microplate counter (Flexstation III, Molecular Device).

T1 sequence (P09874 whole entry): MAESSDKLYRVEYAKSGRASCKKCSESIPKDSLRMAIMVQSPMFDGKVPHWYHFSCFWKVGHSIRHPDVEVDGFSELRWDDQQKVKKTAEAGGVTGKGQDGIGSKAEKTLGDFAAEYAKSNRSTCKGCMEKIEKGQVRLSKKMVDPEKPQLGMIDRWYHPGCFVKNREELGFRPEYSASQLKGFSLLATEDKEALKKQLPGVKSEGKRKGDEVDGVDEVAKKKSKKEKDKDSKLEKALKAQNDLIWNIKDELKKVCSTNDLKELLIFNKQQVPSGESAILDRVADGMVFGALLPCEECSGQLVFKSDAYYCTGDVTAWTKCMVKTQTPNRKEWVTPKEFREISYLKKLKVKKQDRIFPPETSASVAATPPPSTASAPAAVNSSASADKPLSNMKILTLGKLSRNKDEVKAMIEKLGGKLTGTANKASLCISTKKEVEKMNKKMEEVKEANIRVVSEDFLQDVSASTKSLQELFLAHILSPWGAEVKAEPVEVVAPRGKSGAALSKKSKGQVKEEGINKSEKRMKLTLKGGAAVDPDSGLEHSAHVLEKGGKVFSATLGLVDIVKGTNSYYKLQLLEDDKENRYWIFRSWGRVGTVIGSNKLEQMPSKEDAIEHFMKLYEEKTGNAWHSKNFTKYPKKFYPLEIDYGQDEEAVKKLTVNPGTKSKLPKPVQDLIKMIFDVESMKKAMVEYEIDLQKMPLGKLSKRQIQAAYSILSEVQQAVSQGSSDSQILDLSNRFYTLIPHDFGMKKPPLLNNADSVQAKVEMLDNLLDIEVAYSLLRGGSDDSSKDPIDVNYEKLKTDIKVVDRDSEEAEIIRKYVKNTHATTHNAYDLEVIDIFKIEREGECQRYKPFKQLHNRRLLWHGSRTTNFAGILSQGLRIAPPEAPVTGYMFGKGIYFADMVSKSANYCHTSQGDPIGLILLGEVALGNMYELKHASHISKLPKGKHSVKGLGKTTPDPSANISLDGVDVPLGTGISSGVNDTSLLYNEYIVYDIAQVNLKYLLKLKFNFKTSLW

For `CN1CC2CC2(c2cnn3c2[nH]c2cc(F)cc(C(N)=O)c23)C1` (stereo not drawn) [Example 28, 6-fluoro-3-(3-methyl-3-azabicyclo[3.1.0]hexan-1-yl)-4H-benzo[4,5]imidazo[1,2-b]pyrazole-8-carboxamide], at PARP-1, the IC50 lay in the range of 1 to 100 nM. For the same molecule, the EC50 with HCC1937 cells lay within 1 to 100 nM.
As to `CCN1CC2CC2(c2cnn3c2[nH]c2cc(F)cc(C(N)=O)c23)C1` (stereo not drawn) [Example 29, 3-(3-ethyl-3-azabicyclo[3.1.0]hexan-1-yl)-6-fluoro-4H-benzo[4,5]imidazo[1,2-b]pyrazole-8-carboxamide], at PARP-1, the IC50 was 1 to 100 nM. For the same molecule, in the assay with HCC1937 cells, the EC50 is 1 to 100 nM.
For the molecule `NC(=O)c1cc(F)cc2[nH]c3c(C45CC4CN(C4CCC4)C5)cnn3c12` (stereo not drawn) [Example 30, 3-(3-cyclobutyl-3-azabicyclo[3.1.0]hexan-1-yl)-6-fluoro-4H-benzo[4,5]imidazo[1,2-b]pyrazole-8-carboxamide], at PARP-1, the IC50 lay in the range of 1 to 100 nM. In the assay with HCC1937 cells, the EC50 was in the range of 1 to 100 nM.
For the molecule `NC(=O)c1cc(F)cc2[nH]c3c(C45CC4CN(CC4CC4)C5)cnn3c12` (stereo not drawn) [Example 31, 3-(3-(cyclopropylmethyl)-3-azabicyclo[3.1.0]hexan-1-yl)-6-fluoro-4H-benzo[4,5]imidazo[1,2-b]pyrazole-8-carboxamide], the IC50 on PARP-1 lay in the range of 1 to 100 nM. In addition, the EC50 in the assay with HCC1937 cells fell in the range of 1 to 100 nM.
Take `CC(C)N1CC2CC2(c2cnn3c2[nH]c2cc(F)cc(C(N)=O)c23)C1` (stereo not drawn) [Example 32, 6-fluoro-3-(3-isopropyl-3-azabicyclo[3.1.0]hexan-1-yl)-4H-benzo[4,5]imidazo[1,2-b]pyrazole-8-carboxamide]: at PARP-1, the IC50 lay in the range of 1 to 100 nM. The EC50 with HCC1937 cells was in the range of 1 to 100 nM.
Turning to `NC(=O)c1cc(F)cc2[nH]c3c(C4C5CNCC54)cnn3c12` (stereo not drawn) [Example 33, 3-(3-azabicyclo[3.1.0]hexan-6-yl)-6-fluoro-4H-benzo[4,5]imidazo[1,2-b]pyrazole-8-carboxamide], the IC50 at PARP-1 was in the range of 1 to 100 nM. In the assay with HCC1937 cells, the EC50 lay within 101 to 1000 nM.
With `CCN1CC2C(C1)C2c1cnn2c1[nH]c1cc(F)cc(C(N)=O)c12` (stereo not drawn) [Example 34, 3-(3-ethyl-3-azabicyclo[3.1.0]hexan-6-yl)-6-fluoro-4H-benzo[4,5]imidazo[1,2-b]pyrazole-8-carboxamide], the IC50 at PARP-1 lay within 1 to 100 nM. For the same molecule, in the assay on HCC1937 cells, the EC50 was 101 to 1000 nM.
In the same order, the values of `CCN1C2CCC1CC(c1cnn3c1[nH]c1cc(F)cc(C(N)=O)c13)C2` (stereo not drawn) [Example 35, 3-(8-ethyl-8-azabicyclo[3.2.1]octan-3-yl)-6-fluoro-4H-benzo[4,5]imidazo[1,2-b]pyrazole-8-carboxamide] are 1 to 100 nM and 101 to 1000 nM.
Taken in the same sequence, the figures for `NC(=O)c1cc(F)cc2[nH]c3c(C4CC(O)CN4)cnn3c12` (stereo not drawn) [Example 36, 6-fluoro-3-(4-hydroxypyrrolidin-2-yl)-4H-benzo[4,5]imidazo[1,2-b]pyrazole-8-carboxamide] were 1 to 100 nM and 101 to 1000 nM.
Regarding `N#Cc1cnn2c1[nH]c1cc(F)cc(C(N)=O)c12` [Example 37, 3-cyano-6-fluoro-4H-benzo[4,5]imidazo[1,2-b]pyrazole-8-carboxamide], the IC50 at PARP-1 was in the range of 1 to 100 nM. In addition, the half-maximal effective concentration (EC50) in the assay on HCC1937 cells is more than 1000 nM.
In the case of `N#Cc1cnn2c1[nH]c1cccc(C(N)=O)c12` [Example 38, 3-cyano-4H-benzo[4,5]imidazo[1,2-b]pyrazole-8-carboxamide], the IC50 on PARP-1 is 101 to 1000 nM. The EC50 with HCC1937 cells is more than 1000 nM.
In the same order, the values of `NCc1cnn2c1[nH]c1cc(F)cc(C(N)=O)c12` [Example 39, 3-(aminomethyl)-6-fluoro-4H-benzo[4,5]imidazo[1,2-b]pyrazole-8-carboxamide] are 1 to 100 nM and 101 to 1000 nM.
As for `NC(=O)c1cc(F)cc2[nH]c3c(CNC(=O)C4CC4)cnn3c12` [Example 40, 3-(cyclopropanecarboxamidomethyl)-6-fluoro-4H-benzo[4,5]imidazo[1,2-b]pyrazole-8-carboxamide], the IC50 on PARP-1 fell in the range of 1 to 100 nM. For the same molecule, the concentration for a half-maximal effect (EC50) in the assay with HCC1937 cells was more than 1000 nM.
As for `NC(=O)c1cc(F)cc2[nH]c3c(-c4ccc(F)cc4)cnn3c12` [Example 41, 6-fluoro-3-(4-fluorophenyl)-4H-benzo[4,5]imidazo[1,2-b]pyrazole-8-carboxamide], the IC50 at PARP-1 lay in the range of 101 to 1000 nM. Also, the EC50 in the assay with HCC1937 cells is more than 1000 nM.
Taken in the same sequence, the figures for `CNCc1ccc(-c2cnn3c2[nH]c2cc(F)cc(C(N)=O)c23)c(F)c1` [Example 42, 6-fluoro-3-(2-fluoro-4-((methylamino)methyl)phenyl)-4H-benzo[4,5]imidazo[1,2-b]pyrazole-8-carboxamide] were 1 to 100 nM and 101 to 1000 nM.
In the same order, the values of `CNCc1ccc(-c2cnn3c2[nH]c2cc(F)cc(C(N)=O)c23)cc1` [Example 43, 6-fluoro-3-(4-((methylamino)methyl)phenyl)-4H-benzo[4,5]imidazo[1,2-b]pyrazole-8-carboxamide] are 1 to 100 nM and 101 to 1000 nM.
Take `CNCc1ccc(F)c(-c2cnn3c2[nH]c2cc(F)cc(C(N)=O)c23)c1` [Example 44, 6-fluoro-3-(2-fluoro-5-((methylamino)methyl)phenyl)-4H-benzo[4,5]imidazo[1,2-b]pyrazole-8-carboxamide]: the IC50 at PARP-1 was 101 to 1000 nM. Besides, the EC50 in the assay on HCC1937 cells is 101 to 1000 nM.
As to `NC(=O)c1cc(F)cc2[nH]c3c(-c4ccncc4)cnn3c12` [Example 45, 6-fluoro-3-(pyridin-4-yl)-4H-benzo[4,5]imidazo[1,2-b]pyrazole-8-carboxamide], the IC50 at PARP-1 was in the range of 101 to 1000 nM. For the same molecule, in the assay on HCC1937 cells, the EC50 is more than 1000 nM.
In the same order, the values of `NC(=O)c1cc(F)cc2[nH]c3c(-c4ccc(C5CCCNC5)cc4)cnn3c12` (stereo not drawn) [Example 46, 6-fluoro-3-(4-(piperidin-3-yl)phenyl)-4H-benzo[4,5]imidazo[1,2-b]pyrazole-8-carboxamide] are 101 to 1000 nM and more than 1000 nM.
Turning to `NC(=O)c1cc(F)cc2[nH]c3c(C4CCOCC4)cnn3c12` [Example 47, 6-fluoro-3-(tetrahydro-2H-pyran-4-yl)-4H-benzo[4,5]imidazo[1,2-b]pyrazole-8-carboxamide], the IC50 at PARP-1 fell in the range of 1 to 100 nM. Also, in the assay with HCC1937 cells, the EC50 is more than 1000 nM.
In the same order, the values of `CN(C)C1CCC(c2cnn3c2[nH]c2cc(F)cc(C(N)=O)c23)CC1` (stereo not drawn) [Example 48, 3-(4-(dimethylamino)cyclohexyl)-6-fluoro-4H-benzo[4,5]imidazo[1,2-b]pyrazole-8-carboxamide] are 1 to 100 nM and 1 to 100 nM.
Taken in the same sequence, the figures for `CN1CCN(C(=O)c2cnn3c2[nH]c2cc(F)cc(C(N)=O)c23)CC1` [Example 49, 6-fluoro-3-(4-methylpiperazine-1-carbonyl)-4H-benzo[4,5]imidazo[1,2-b]pyrazole-8-carboxamide] were 1 to 100 nM and 101 to 1000 nM.
In the same order, the values of `NC(=O)c1cc(F)cc2c1-n1ncc(C3CCN(CC4CC4)CC3)c1C2(F)F` [Example 50, 3-(1-(cyclopropylmethyl)piperidin-4-yl)-4,4,6-trifluoro-4H-pyrazolo[1,5-α]indole-8-carboxamide] are 101 to 1000 nM and more than 1000 nM.
Consider `CC1(c2cnn3c2[nH]c2cc(F)cc(C(N)=O)c23)CCN(CC2(C#N)CCC2)CC1` [Example 64, 3-(1-((1-cyanocyclobutyl)methyl)-4-methylpiperidin-4-yl)-6-fluoro-4H-benzo[4,5]imidazo[1,2-b]pyrazole-8-carboxamide], for which, at PARP-1, the IC50 was 1 to 100 nM. In the assay with HCC1937 cells, the EC50 lay within 101 to 1000 nM.
